Data: patent US10758534B2 (Vertex Pharmaceuticals Incorporated, priority 2014, dated 2020)

Target: T1, F508del (Homo sapiens, UniProt P13569, DEL508-508)
T1 construct: expressed in transfected cells
Assay: Protocol 1: membrane potential optical assay (FLIPR III, voltage sensing dye), identification of potentiator compounds
Assay type: cell-based
Details: Table 3, compounds of Table 1
Excerpt: Membrane Potential Optical Methods for Assaying F508del Modulation Properties of Compounds
The assay utilizes fluorescent voltage sensing dyes to measure changes in membrane potential using a fluorescent plate reader (e.g., FLIPR III, Molecular Devices, Inc.) as a readout for increase in functional F508del in NIH 3T3 cells. The driving force for the response is the creation of a chloride ion gradient in conjunction with channel activation by a single liquid addition step after the cells have previously been treated with compounds and subsequently loaded with a voltage sensing dye.
Identification of Potentiator Compounds
To identify potentiators of F508del, a double-addition HTS assay format was developed. This HTS assay utilizes fluorescent voltage sensing dyes to measure changes in membrane potential on the FLIPR III as a measurement for increase in gating (conductance) of F508del in temperature-corrected F508del NIH 3T3 cells. The driving force for the response is a Cl^− ion gradient in conjunction with channel activation with forskolin in a single liquid addition step using a fluorescent plate reader such as FLIPR III after the cells have previously been treated with potentiator compounds (or DMSO vehicle control) and subsequently loaded with a redistribution dye.
Bath Solution #1: (in mM) NaCl 160, KCl 4.5, CaCl2 2, MgCl2 1, HEPES 10, pH 7.4 with NaOH.
Chloride-free bath solution: Chloride salts in Bath Solution #1 (above) are substituted with gluconate salts.
NIH3T3 mouse fibroblasts stably expressing F508del are used for optical measurements of membrane potential. The cells are maintained at 37° C. in 5% CO2 and 90% humidity in Dulbecco's modified Eagle's medium supplemented with 2 mM glutamine, 10% fetal bovine serum, 1×NEAA, β-ME, 1× pen/strep, and 25 mM HEPES in 175 cm^2 culture flasks. For all optical assays, the cells were seeded at ˜20,000/well in 384-well matrigel-coated plates and cultured for 2 hrs at 37° C. before culturing at 27° C. for 24 hrs. for the potentiator assay. For the correction assays, the cells are cultured at 27° C. or 37° C. with and without compounds for 16-24 hours.

T1 sequence (P13569 with tags, fused parts or gaps DEL508-508): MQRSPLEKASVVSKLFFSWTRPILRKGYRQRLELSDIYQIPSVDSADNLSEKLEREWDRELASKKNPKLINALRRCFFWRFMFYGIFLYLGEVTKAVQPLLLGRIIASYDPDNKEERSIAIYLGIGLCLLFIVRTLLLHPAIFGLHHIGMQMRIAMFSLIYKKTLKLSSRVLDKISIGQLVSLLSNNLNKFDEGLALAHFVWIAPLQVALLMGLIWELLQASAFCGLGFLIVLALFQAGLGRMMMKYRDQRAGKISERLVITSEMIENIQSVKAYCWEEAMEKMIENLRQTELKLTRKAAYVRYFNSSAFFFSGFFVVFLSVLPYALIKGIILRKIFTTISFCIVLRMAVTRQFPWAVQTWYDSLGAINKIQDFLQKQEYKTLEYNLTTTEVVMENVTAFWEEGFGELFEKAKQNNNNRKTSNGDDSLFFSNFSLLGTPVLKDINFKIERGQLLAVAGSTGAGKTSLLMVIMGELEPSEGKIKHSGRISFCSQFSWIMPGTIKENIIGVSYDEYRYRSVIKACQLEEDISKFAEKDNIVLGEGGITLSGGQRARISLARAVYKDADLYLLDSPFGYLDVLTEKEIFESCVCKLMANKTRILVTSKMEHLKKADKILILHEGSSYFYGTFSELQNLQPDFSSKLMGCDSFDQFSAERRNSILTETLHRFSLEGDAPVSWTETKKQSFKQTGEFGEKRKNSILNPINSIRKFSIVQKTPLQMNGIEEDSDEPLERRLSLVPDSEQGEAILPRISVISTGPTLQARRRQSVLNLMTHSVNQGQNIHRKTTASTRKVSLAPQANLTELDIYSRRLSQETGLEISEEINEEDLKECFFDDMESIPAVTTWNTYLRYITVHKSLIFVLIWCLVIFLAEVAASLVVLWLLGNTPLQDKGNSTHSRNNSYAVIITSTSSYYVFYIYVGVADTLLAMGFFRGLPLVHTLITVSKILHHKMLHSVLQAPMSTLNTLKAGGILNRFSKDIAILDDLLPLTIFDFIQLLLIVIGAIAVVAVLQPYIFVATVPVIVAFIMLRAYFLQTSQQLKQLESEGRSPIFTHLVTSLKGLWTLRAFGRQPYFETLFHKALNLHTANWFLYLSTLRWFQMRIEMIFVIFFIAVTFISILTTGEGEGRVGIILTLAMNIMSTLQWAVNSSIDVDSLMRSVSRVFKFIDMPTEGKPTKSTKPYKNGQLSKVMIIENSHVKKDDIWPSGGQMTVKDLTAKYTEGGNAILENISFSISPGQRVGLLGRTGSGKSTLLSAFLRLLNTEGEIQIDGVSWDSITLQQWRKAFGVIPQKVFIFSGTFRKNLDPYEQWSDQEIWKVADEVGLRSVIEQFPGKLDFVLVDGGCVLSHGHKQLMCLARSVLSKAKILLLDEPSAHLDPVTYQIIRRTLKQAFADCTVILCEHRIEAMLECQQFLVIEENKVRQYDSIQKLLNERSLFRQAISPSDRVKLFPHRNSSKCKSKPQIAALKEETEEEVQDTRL

EC30 | SMILES
++ (“++” means between 3 uM and 10 uM) | CC1CN(c2nc(-c3cnc(OC(C)C)nc3)ccc2C(=O)NS(=O)(=O)c2cccc(N)n2)C(C)(C)C1 (stereo not shown) [Compound 844, N-[(6-amino-2-pyridyl)sulfonyl]-6-(2-isopropoxypyrimidin-5-yl)-2-(2,2,4-trimethylpyrrolidin-1-yl)pyridine-3-carboxamide]
+++ (“+++” means <3 uM) | CC1CCN(c2nc(-c3ccc(C(C)C)cc3)ccc2C(=O)NS(=O)(=O)c2cccc(N)n2)CC1 [Compound 847, N-[(6-amino-2-pyridyl)sulfonyl]-6-(4-isopropylphenyl)-2-(4-methyl-1-piperidyl)pyridine-3-carboxamide]
+++ (“+++” means <3 uM) | CC(C)CCOc1ccc(-c2ccc(C(=O)NS(=O)(=O)c3cccc(N)n3)c(N3CC(C)CC3(C)C)n2)cn1 (stereo not shown) [Compound 848, N-[(6-amino-2-pyridyl)sulfonyl]-6-(6-isopentyloxy-3-pyridyl)-2-(2,2,4-trimethylpyrrolidin-1-yl)pyridine-3-carboxamide]
+ (“+” means greater than 10 uM) | Cc1ccc(-c2nc(-c3cc(F)cc(OC(C)C)c3)ccc2C(=O)NS(=O)(=O)c2ccn[nH]2)cc1 [Compound 849, 6-(3-fluoro-5-isopropoxy-phenyl)-2-(p-tolyl)-N-(1H-pyrazol-5-ylsulfonyl)pyridine-3-carboxamide]
++ (“++” means between 3 uM and 10 uM) | C[C@@H]1CN(c2nc(Cl)ccc2C(=O)NS(=O)(=O)c2cccc(N)n2)C(C)(C)C1 [Compound 852, N-[(6-amino-2-pyridyl)sulfonyl]-6-chloro-2-[(4S)-2,2,4-trimethylpyrrolidin-1-yl]pyridine-3-carboxamide]
+++ (“+++” means <3 uM) | Cc1cc(C)c(Oc2nc(C(F)(F)C(F)(F)F)ccc2C(=O)NS(=O)(=O)c2cccc(N)n2)c(C)c1 [Compound 853, N-[(6-amino-2-pyridyl)sulfonyl]-6-(1,1,2,2,2-pentafluoroethyl)-2-(2,4,6-trimethylphenoxy)pyridine-3-carboxamide]
++ (“++” means between 3 uM and 10 uM) | Cc1cc(C)c(Oc2ncc(C3(C)CC3)cc2C(=O)NS(=O)(=O)c2cccc(N)n2)c(C)c1 [Compound 854, N-[(6-amino-2-pyridyl)sulfonyl]-5-(1-methylcyclopropyl)-2-(2,4,6-trimethylphenoxy)pyridine-3-carboxamide]
+ (“+” means greater than 10 uM) | Cc1cc(C)c(CN2Cc3ccccc3CCC2C(=O)NS(=O)(=O)c2ccc[nH]c2=O)c(C)c1 (stereo not shown) [Compound 855, N-[(2-oxo-1H-pyridin-3-yl)sulfonyl]-2-[(2,4,6-trimethylphenyl)methyl]-1,3,4,5-tetrahydro-2-benzazepine-3-carboxamide]
++ (“++” means between 3 uM and 10 uM) | Cc1cc(C)c(Oc2nc(-c3ccc4[nH]ncc4c3)ccc2C(=O)NS(=O)(=O)c2cccc(N)n2)c(C)c1 [Compound 856, N-[(6-amino-2-pyridyl)sulfonyl]-6-(1H-indazol-5-yl)-2-(2,4,6-trimethylphenoxy)pyridine-3-carboxamide]

Continued, compound first:

SMILES | EC30
CCCOc1cc(-c2ccc(C(=O)NS(=O)(=O)c3ccn[nH]3)c(N3[C@H](C)CC[C@@H]3C)n2)ccc1Cl [Compound 832, 6-(4-chloro-3-propoxy-phenyl)-2-[(2R,5S)-2,5-dimethylpyrrolidin-1-yl]-N-(1H-pyrazol-5-ylsulfonyl)pyridine-3-carboxamide] | +++ (“+++” means <3 uM)
COc1cccc(-c2nc(N3CC(C)CC3(C)C)c(C(=O)NS(=O)(=O)c3cccc(N)n3)cc2C)c1 (stereo not shown) [Compound 833, N-[(6-amino-2-pyridyl)sulfonyl]-6-(3-methoxyphenyl)-5-methyl-2-(2,2,4-trimethylpyrrolidin-1-yl)pyridine-3-carboxamide] | +++ (“+++” means <3 uM)
CC(C)Oc1ccc(-c2ccc(C(=O)NS(=O)(=O)c3cccc(N)n3)c(N3CCCC3(C)C)n2)cn1 [Compound 834, N-[(6-amino-2-pyridyl)sulfonyl]-2-(2,2-dimethylpyrrolidin-1-yl)-6-(6-isopropoxy-3-pyridyl)pyridine-3-carboxamide] | +++ (“+++” means <3 uM)
CCOc1cc(F)cc(-c2ccc(C(=O)NS(=O)(=O)c3ccc[nH]c3=O)c(Oc3c(C)cc(C)cc3C)n2)c1 [Compound 835, 6-(3-ethoxy-5-fluoro-phenyl)-N-[(2-oxo-1H-pyridin-3-yl)sulfonyl]-2-(2,4,6-trimethylphenoxy)pyridine-3-carboxamide] | ++ (“++” means between 3 uM and 10 uM)
CC(C)Oc1ccc(-c2ccc(C(=O)NS(=O)(=O)c3cccc(N)n3)c(N3CCC[C@H](C)C3)n2)cn1 [Compound 836, N-[(6-amino-2-pyridyl)sulfonyl]-6-(6-isopropoxy-3-pyridyl)-2-[(3S)-3-methyl-1-piperidyl]pyridine-3-carboxamide] | ++ (“++” means between 3 uM and 10 uM)
CC(C)COc1cc(F)cc(-c2ccc(C(=O)NS(=O)(=O)c3cccc(N)n3)c(N3CCCC(C)C3C)n2)c1 (stereo not shown) [Compound 837, N-[(6-amino-2-pyridyl)sulfonyl]-2-(2,3-dimethyl-1-piperidyl)-6-(3-fluoro-5-isobutoxy-phenyl)pyridine-3-carboxamide] | +++ (“+++” means <3 uM)
Cc1cc(C)c(CN2CCc3ccccc3CC2C(=O)NS(=O)(=O)c2cccc(NCCO)n2)c(C)c1 (stereo not shown) [Compound 838, N-[[6-(2-hydroxyethylamino)-2-pyridyl]sulfonyl]-3-[(2,4,6-trimethylphenyl)methyl]-1,2,4,5-tetrahydro-3-benzazepine-4-carboxamide] | ++ (“++” means between 3 uM and 10 uM)
COc1ccc(-c2ccc(C(=O)NS(=O)(=O)c3ccc[nH]c3=O)c(Oc3c(C)cc(C)cc3C)n2)c(F)c1 [Compound 839, 6-(2-fluoro-4-methoxy-phenyl)-N-[(2-oxo-1H-pyridin-3-yl)sulfonyl]-2-(2,4,6-trimethylphenoxy)pyridine-3-carboxamide] | ++ (“++” means between 3 uM and 10 uM)
Cc1cc(C)c(CN2C(C(=O)NS(=O)(=O)c3cc(N)ccc3C)c3ccccc3C2(C)C)c(C)c1 (stereo not shown) [Compound 840, N-(5-amino-2-methyl-phenyl)sulfonyl-3,3-dimethyl-2-[(2,4,6-trimethylphenyl)methyl]isoindoline-1-carboxamide] | +++ (“+++” means <3 uM)
Cc1cc(C)c(Oc2nc(C)c(C)cc2C(=O)NS(=O)(=O)c2cccc(N)n2)c(C)c1 [Compound 841, N-[(6-amino-2-pyridyl)sulfonyl]-5,6-dimethyl-2-(2,4,6-trimethylphenoxy)pyridine-3-carboxamide] | +++ (“+++” means <3 uM)
CC(C)COc1cc(F)cc(-c2ccc(C(=O)NS(=O)(=O)c3nc(N)cs3)c(N3CC(C)CC3(C)C)n2)c1 (stereo not shown) [Compound 842, N-(4-aminothiazol-2-yl)sulfonyl-6-(3-fluoro-5-isobutoxy-phenyl)-2-(2,2,4-trimethylpyrrolidin-1-yl)pyridine-3-carboxamide] | +++ (“+++” means <3 uM)
CCOC1CCCN(c2nc(-c3cc(F)cc(OCC(C)C)c3)ccc2C(=O)NS(=O)(=O)c2ccn[nH]2)C1 (stereo not shown) [Compound 843, 2-(3-ethoxy-1-piperidyl)-6-(3-fluoro-5-isobutoxy-phenyl)-N-(1H-pyrazol-5-ylsulfonyl)pyridine-3-carboxamide] | ++ (“++” means between 3 uM and 10 uM)
CC(C)COc1cc(F)cc(-c2ccc(C(=O)NS(=O)(=O)c3cccc(N)n3)c(N3CCCC34CCC4)n2)c1 [Compound 845, N-[(6-amino-2-pyridyl)sulfonyl]-2-(8-azaspiro[3.4]octan-8-yl)-6-(3-fluoro-5-isobutoxy-phenyl)pyridine-3-carboxamide] | +++ (“+++” means <3 uM)
CC(C)CC(C)Oc1cccc(-c2ccc(C(=O)NS(=O)(=O)c3cccc(N)n3)c(N3CCCC3(C)C)n2)n1 (stereo not shown) [Compound 846, N-[(6-amino-2-pyridyl)sulfonyl]-6-[6-(1,3-dimethylbutoxy)-2-pyridyl]-2-(2,2-dimethylpyrrolidin-1-yl)pyridine-3-carboxamide] | +++ (“+++” means <3 uM)
CC(C)COc1cc(F)cc(-c2ccc(C(=O)NS(=O)(=O)c3cccc(N)n3)c(N3CC(C)(C)CC3(C)C)n2)c1 [Compound 850, N-[(6-amino-2-pyridyl)sulfonyl]-6-(3-fluoro-5-isobutoxy-phenyl)-2-(2,2,4,4-tetramethylpyrrolidin-1-yl)pyridine-3-carboxamide] | +++ (“+++” means <3 uM)
Cc1cc(OCC(C)C)ncc1-c1ccc(C(=O)NS(=O)(=O)c2cccc(N)n2)c(N2CC(C)CC2(C)C)n1 (stereo not shown) [Compound 851, N-[(6-amino-2-pyridyl)sulfonyl]-6-(6-isobutoxy-4-methyl-3-pyridyl)-2-(2,2,4-trimethylpyrrolidin-1-yl)pyridine-3-carboxamide] | +++ (“+++” means <3 uM)
